Eleven cell lines from the supplement of paper PMC10307832 can be followed below.

Common to all, as to test: relative viability (nuclei count vs DMSO), 5 days (fraction); higher = more cells survive
Compound in the experiment “XMD14-99 + Luminespib”: CN1CCN(CC1)C2=CC(=C(C=C2)NC3=NC(=C(S3)C(=O)C4=C(C=CC=C4Cl)Cl)N)OC [XMD14-99] + CCNC(=O)c1noc(-c2cc(C(C)C)c(O)cc2O)c1-c1ccc(CN2CCOCC2)cc1 [Luminespib] (partner 0.01 µM)
An outline of the steps:
(§1)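 The day after seeding in 1536-well plates, lung cancer cell lines were treated by pin tool with a single drug, or with a fixed anchor-drug dose together with five library-drug doses (not always all listed) in √10 steps. After 5 days, a combined fix-and-stain solution (final 0.05% Triton X-100, 1% formaldehyde, 1 ug/ml Hoechst) was added. Nuclei counted on 4× images gave relative viability as treated counts over vehicle counts, reported as the median of duplicate plates.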

Compound in the experiment “XMD14-99 + Crizotinib”: CN1CCN(CC1)C2=CC(=C(C=C2)NC3=NC(=C(S3)C(=O)C4=C(C=CC=C4Cl)Cl)N)OC [XMD14-99] + C[C@@H](Oc1cc(-c2cnn(C3CCNCC3)c2)cnc1N)c1c(Cl)ccc(F)c1Cl [Crizotinib] (partner 1 µM)
An outline of the steps: as §1

Compound in the experiment “XMD14-99 + Pemetrexed”: CN1CCN(CC1)C2=CC(=C(C=C2)NC3=NC(=C(S3)C(=O)C4=C(C=CC=C4Cl)Cl)N)OC [XMD14-99] + Nc1nc2[nH]cc(CCc3ccc(C(=O)N[C@@H](CCC(=O)O)C(=O)O)cc3)c2c(=O)[nH]1 [Pemetrexed] (partner 0.2 µM)
The method in brief:
as §1

Compound in the experiment “AZD1208 + OSI-027”: N[C@@H]1CCCN(c2c(/C=C3\SC(=O)NC3=O)cccc2-c2ccccc2)C1 [AZD1208] + COc1cccc2cc(-c3nc([C@H]4CC[C@H](C(=O)O)CC4)n4ncnc(N)c34)[nH]c12 [OSI-027] (partner 0.5 µM)
The method in brief:
as §1

As to LOU-NH91, the relative viability in the experiment with XMD14-99 + Luminespib (first compound 0.08 µM) worked out at 0.443; with XMD14-99 + Luminespib (first compound 0.8 µM), 0.325; with XMD14-99 + Luminespib (first compound 2.53 µM), 0.294; in the experiment with XMD14-99 + Luminespib (first compound 8 µM), 0.3; in the experiment with XMD14-99 + Crizotinib (first compound 0.08 µM), 0.789; in the experiment with XMD14-99 + Crizotinib (first compound 0.8 µM) it was 0.743. The relative viability was found to be 0.717 with XMD14-99 + Crizotinib (first compound 2.53 µM); 0.698 with XMD14-99 + Crizotinib (first compound 8 µM); 0.351 with XMD14-99 + Pemetrexed (first compound 0.08 µM); 0.379 with XMD14-99 + Pemetrexed (first compound 0.8 µM); 0.319 with XMD14-99 + Pemetrexed (first compound 2.53 µM); 0.415 with XMD14-99 + Pemetrexed (first compound 8 µM). Further, the relative viability with AZD1208 + OSI-027 (first compound 0.08 µM) came to 0.737; with AZD1208 + OSI-027 (first compound 0.253 µM) it was 0.577; with AZD1208 + OSI-027 (first compound 0.8 µM), 0.631; with AZD1208 + OSI-027 (first compound 2.53 µM), 0.694; in the experiment with AZD1208 + OSI-027 (first compound 8 µM), 0.619.

On to LU99A, for which the relative viability in the experiment with XMD14-99 + Luminespib (first compound 0.08 µM) is 0.288; with XMD14-99 + Luminespib (first compound 0.8 µM), 0.252; with XMD14-99 + Luminespib (first compound 2.53 µM), 0.247; in the experiment with XMD14-99 + Luminespib (first compound 8 µM), 0.219; with XMD14-99 + Crizotinib (first compound 0.08 µM) it was 0.612; with XMD14-99 + Crizotinib (first compound 0.8 µM) it was 0.489. Further, the relative viability with XMD14-99 + Crizotinib (first compound 2.53 µM) is 0.542; with XMD14-99 + Crizotinib (first compound 8 µM), 0.468; with XMD14-99 + Pemetrexed (first compound 0.08 µM), 0.199; in the experiment with XMD14-99 + Pemetrexed (first compound 0.8 µM), 0.174; in the experiment with XMD14-99 + Pemetrexed (first compound 2.53 µM) it was 0.191; in the experiment with XMD14-99 + Pemetrexed (first compound 8 µM) it was 0.156. Further, the relative viability was 0.295 with AZD1208 + OSI-027 (first compound 0.08 µM); 0.29 with AZD1208 + OSI-027 (first compound 0.253 µM); 0.291 in the experiment with AZD1208 + OSI-027 (first compound 0.8 µM); 0.264 with AZD1208 + OSI-027 (first compound 2.53 µM); 0.238 with AZD1208 + OSI-027 (first compound 8 µM).

As to NCI-H522, the relative viability with XMD14-99 + Luminespib (first compound 0.08 µM) came out at 1.05; in the experiment with XMD14-99 + Luminespib (first compound 0.8 µM), 1.28; with XMD14-99 + Luminespib (first compound 2.53 µM) it was 1.2; with XMD14-99 + Luminespib (first compound 8 µM), 1.18; with XMD14-99 + Pemetrexed (first compound 0.08 µM), 0.867; in the experiment with XMD14-99 + Pemetrexed (first compound 0.8 µM), 1.04. Also, the relative viability in the experiment with XMD14-99 + Pemetrexed (first compound 2.53 µM) worked out at 1.14; with XMD14-99 + Pemetrexed (first compound 8 µM), 1.08; in the experiment with AZD1208 + OSI-027 (first compound 0.08 µM), 0.771; with AZD1208 + OSI-027 (first compound 0.253 µM), 0.575; with AZD1208 + OSI-027 (first compound 0.8 µM), 0.618; in the experiment with AZD1208 + OSI-027 (first compound 2.53 µM), 0.691. Further, the relative viability in the experiment with AZD1208 + OSI-027 (first compound 8 µM) turned out to be 0.701.

As for NCI-H727, the relative viability was determined as 0.383 with XMD14-99 + Luminespib (first compound 0.08 µM); 0.305 with XMD14-99 + Luminespib (first compound 0.8 µM); 0.203 with XMD14-99 + Luminespib (first compound 2.53 µM); 0.352 with XMD14-99 + Luminespib (first compound 8 µM); 0.889 with XMD14-99 + Crizotinib (first compound 0.08 µM); 0.704 in the experiment with XMD14-99 + Crizotinib (first compound 0.8 µM). Besides, the relative viability in the experiment with XMD14-99 + Crizotinib (first compound 2.53 µM) is 0.561; with XMD14-99 + Crizotinib (first compound 8 µM), 0.381; with AZD1208 + OSI-027 (first compound 0.08 µM) it was 0.576; with AZD1208 + OSI-027 (first compound 0.253 µM) it was 0.561; in the experiment with AZD1208 + OSI-027 (first compound 0.8 µM), 0.414; with AZD1208 + OSI-027 (first compound 2.53 µM), 0.468. The relative viability with AZD1208 + OSI-027 (first compound 8 µM) was determined as 0.548.

NCI-H1299: the relative viability was 0.946 in the experiment with XMD14-99 + Crizotinib (first compound 0.08 µM), 0.898 with XMD14-99 + Crizotinib (first compound 0.8 µM), 0.998 with XMD14-99 + Crizotinib (first compound 2.53 µM) and 0.769 with XMD14-99 + Crizotinib (first compound 8 µM).

Consider NCI-H1395, for which the relative viability with XMD14-99 + Luminespib (first compound 0.08 µM) is 0.733; with XMD14-99 + Luminespib (first compound 0.8 µM), 0.685; with XMD14-99 + Luminespib (first compound 2.53 µM), 0.699; with XMD14-99 + Luminespib (first compound 8 µM) it was 0.555; with XMD14-99 + Pemetrexed (first compound 0.08 µM), 0.838; with XMD14-99 + Pemetrexed (first compound 0.8 µM), 0.953. For the same cell line, the relative viability was found to be 0.904 with XMD14-99 + Pemetrexed (first compound 2.53 µM); 0.729 with XMD14-99 + Pemetrexed (first compound 8 µM); 0.624 with AZD1208 + OSI-027 (first compound 0.08 µM); 0.569 with AZD1208 + OSI-027 (first compound 0.253 µM); 0.578 with AZD1208 + OSI-027 (first compound 0.8 µM); 0.624 in the experiment with AZD1208 + OSI-027 (first compound 2.53 µM). In the experiment with AZD1208 + OSI-027 (first compound 8 µM), the relative viability worked out at 0.491.

Consider NCI-H1648, for which the relative viability with XMD14-99 + Pemetrexed (first compound 0.08 µM) worked out at 0.61; with XMD14-99 + Pemetrexed (first compound 0.8 µM) it was 0.564; with XMD14-99 + Pemetrexed (first compound 2.53 µM) it was 0.554; with XMD14-99 + Pemetrexed (first compound 8 µM) it was 0.542; with AZD1208 + OSI-027 (first compound 0.08 µM), 0.246; in the experiment with AZD1208 + OSI-027 (first compound 0.253 µM), 0.244. In addition, the relative viability turned out to be 0.268 with AZD1208 + OSI-027 (first compound 0.8 µM), 0.244 with AZD1208 + OSI-027 (first compound 2.53 µM) and 0.274 with AZD1208 + OSI-027 (first compound 8 µM).

In the case of NCI-H1703, the relative viability came to 0.611 with XMD14-99 + Crizotinib (first compound 0.08 µM), 0.52 with XMD14-99 + Crizotinib (first compound 0.8 µM), 0.58 with XMD14-99 + Crizotinib (first compound 2.53 µM) and 0.587 with XMD14-99 + Crizotinib (first compound 8 µM).

Take NCI-H1793: the relative viability came to 0.232 with XMD14-99 + Luminespib (first compound 0.08 µM); 0.184 with XMD14-99 + Luminespib (first compound 0.8 µM); 0.499 with XMD14-99 + Luminespib (first compound 2.53 µM); 0.25 with XMD14-99 + Luminespib (first compound 8 µM); 0.947 in the experiment with XMD14-99 + Pemetrexed (first compound 0.08 µM); 1 with XMD14-99 + Pemetrexed (first compound 0.8 µM). In addition, the relative viability is 0.83 in the experiment with XMD14-99 + Pemetrexed (first compound 2.53 µM); 0.631 with XMD14-99 + Pemetrexed (first compound 8 µM); 0.244 in the experiment with AZD1208 + OSI-027 (first compound 0.08 µM); 0.254 with AZD1208 + OSI-027 (first compound 0.253 µM); 0.268 with AZD1208 + OSI-027 (first compound 0.8 µM); 0.31 with AZD1208 + OSI-027 (first compound 2.53 µM). The relative viability with AZD1208 + OSI-027 (first compound 8 µM) turned out to be 0.25.

On to NCI-H2342, for which the relative viability amounted to 0.778 in the experiment with XMD14-99 + Luminespib (first compound 0.08 µM); 0.725 with XMD14-99 + Luminespib (first compound 0.8 µM); 0.787 with XMD14-99 + Luminespib (first compound 2.53 µM); 0.745 with XMD14-99 + Luminespib (first compound 8 µM); 0.785 in the experiment with XMD14-99 + Pemetrexed (first compound 0.08 µM); 0.748 in the experiment with XMD14-99 + Pemetrexed (first compound 0.8 µM). Moreover, the relative viability turned out to be 0.815 with XMD14-99 + Pemetrexed (first compound 2.53 µM); 0.762 with XMD14-99 + Pemetrexed (first compound 8 µM); 0.575 with AZD1208 + OSI-027 (first compound 0.08 µM); 0.664 with AZD1208 + OSI-027 (first compound 0.253 µM); 0.488 in the experiment with AZD1208 + OSI-027 (first compound 0.8 µM); 0.627 with AZD1208 + OSI-027 (first compound 2.53 µM). For the same cell line, the relative viability with AZD1208 + OSI-027 (first compound 8 µM) is 0.574.

Consider SW 900, for which the relative viability with XMD14-99 + Luminespib (first compound 0.08 µM) turned out to be 0.165; in the experiment with XMD14-99 + Luminespib (first compound 0.8 µM), 0.163; with XMD14-99 + Luminespib (first compound 2.53 µM), 0.204; with XMD14-99 + Luminespib (first compound 8 µM), 0.144; in the experiment with XMD14-99 + Pemetrexed (first compound 0.08 µM), 0.518; in the experiment with XMD14-99 + Pemetrexed (first compound 0.8 µM) it was 0.476. Also, the relative viability came out at 0.461 in the experiment with XMD14-99 + Pemetrexed (first compound 2.53 µM); 0.471 in the experiment with XMD14-99 + Pemetrexed (first compound 8 µM); 0.678 in the experiment with AZD1208 + OSI-027 (first compound 0.08 µM); 0.578 with AZD1208 + OSI-027 (first compound 0.253 µM); 0.398 in the experiment with AZD1208 + OSI-027 (first compound 0.8 µM); 0.439 in the experiment with AZD1208 + OSI-027 (first compound 2.53 µM). Also, the relative viability with AZD1208 + OSI-027 (first compound 8 µM) came out at 0.438.
